From ChEMBL document CHEMBL1135211, “Non-covalent thrombin inhibitors featuring P3-heterocycles with P1-bicyclic arginine surrogates” (Bioorg Med Chem Lett, 2002)

Key:
Prothrombin = Prothrombin (Homo sapiens, UniProt P00734); assay: In vitro inhibitory activity against human Thrombin (FIIa) cleavage of the chromogenic substrate
[1] = Ionisation constant (pKa); type: physicochemical
in vivo [2] = conditions: dog, po, 1 mg/kg
in vivo [3] = conditions: dog, po, 1 mg/kg; remark: listed apart in the source
[4] = Cmax in dog plasma after oral dose (1 mg/kg); type: ADME, organism-based, Canis lupus familiaris; parameters: dose 1 mg/kg, route oral

SMILES | Ki (Prothrombin) | pKa [1] | half-life (in vivo [2]) | AUC (in vivo [3]; plasma) | Cmax [4] | AUC (in vivo [3]; in vivo)
Cc1cnc(NCCc2ccc3c(c2)CCC3)c(=O)n1CC(=O)NCc1ccc2c(ccn2N)c1 | 12400 nM | 7.4 |  |  |  | 
Cc1cnc(NCCc2ccccc2)c(=O)n1CC(=O)NCc1ccc2[nH]nnc2c1 | 224 nM |  |  |  |  | 
Cc1cc2cn[nH]c2cc1CNC(=O)Cn1c(C)ccc(NS(=O)(=O)Cc2ccccc2)c1=O | 271 nM | 4 |  |  |  | 
Cc1cnc(NCCc2ccccc2)c(=O)n1CC(=O)NCc1ccc2cn[nH]c2c1 |  |  | 0.417 h | 2200 ng·h/mL | 960 ng/mL | 
Cc1cnc(NCCc2ccccc2)c(=O)n1CC(=O)NCc1ccc2c(N)noc2c1 | 82.2 nM | 8.6 | 2.52 h | 3950 ng·h/mL | 1030 ng/mL | 
COc1cccc(S(=O)(=O)Nc2cccn(CC(=O)NCc3ccc4[nH]nc(N)c4c3)c2=O)c1 | 325 nM | 3.6 | 4.57 h | 3950 ng·h/mL | 930 ng/mL | 
Cc1ccc(NS(=O)(=O)Cc2ccccc2)c(=O)n1CC(=O)NCc1ccc2c(N)[nH]nc2c1 | 224 nM | 3.8 | 1.4 h | 1310 ng·h/mL | 580 ng/mL | 
COc1cccc(S(=O)(=O)Nc2cccn(CC(=O)NCc3ccc4c(N)[nH]nc4c3)c2=O)c1 |  | 3.8 | 1.85 h | 1040 ng·h/mL | 350 ng/mL | 
Cc1ccc(NS(=O)(=O)Cc2ccccc2)c(=O)n1CC(=O)NCc1ccc2c(N)noc2c1 | 74.3 nM | 8.6 | 1.55 h | 3680 ng·h/mL | 1600 ng/mL | 
Cc1ccc(NS(=O)(=O)c2ccc3c(c2)CCO3)c(=O)n1CC(=O)NCc1ccc2c[nH]nc2c1 | 1320 nM |  |  |  |  | 
Cc1n[nH]c2ccc(CNC(=O)Cn3c(C)cnc(NCCc4ccccc4)c3=O)cc12 | 444 nM |  |  |  |  | 
Cc1nc2cc(CNC(=O)Cn3c(C)cnc(NCCc4ccccc4)c3=O)ccc2[nH]1 | > 3970 nM | 6.4 |  |  |  | 
Cc1ccc(NS(=O)(=O)Cc2ccccc2)c(=O)n1CC(=O)NCc1ccc2c(N)[nH]nc2n1 | 1590 nM | 6.7 |  |  |  | 
Cc1cnc(NCCc2ccccc2)c(=O)n1CC(=O)NCc1ccc2[nH]cnc2c1 |  | 5.8 | 1.77 h | 1630 ng·h/mL | 390 ng/mL | 
Cc1ccc(NS(=O)(=O)Cc2ccccc2)c(=O)n1CC(=O)NCc1ccc2[nH]nc(N)c2c1 | 72.9 nM | 3.6 |  |  |  | 
Cc1ccc(NS(=O)(=O)Cc2ccccc2)c(=O)n1CC(=O)NCc1ccc2onc(N)c2c1 |  | 8.2 | 2.2 h | 630 ng·h/mL | 240 ng/mL | 
Cc1cnc(NCCc2ccccc2)c(=O)n1CC(=O)NCc1ccc2[nH]nc(N)c2c1 |  | 3.6 | 2.77 h | 4850 ng·h/mL | 1030 ng/mL | 
Cc1cnc(NCCc2ccccc2)c(=O)n1CC(=O)NCc1ccc2nc(N)sc2c1 | > 3970 nM | 7.5 |  |  |  | 
Cc1ccc(NS(=O)(=O)Cc2ccccc2)c(=O)n1CC(=O)NCc1ccc2c(N)noc2n1 | 203 nM | 4.7 | 0.6 h | 237 ng·h/mL | 280 ng/mL | 

Results, then the molecule that gave them:

Ki (Prothrombin) | pKa [1] | half-life (in vivo [2]) | AUC (in vivo [3]; plasma) | Cmax [4] | AUC (in vivo [3]; in vivo) | SMILES
3.1 nM |  |  |  |  |  | Cc1cnc(NCCc2ccccn2)c(=O)n1CC(=O)NCc1ccc2[nH]ncc2c1
10 nM | 6.3 |  |  |  |  | Cc1cnc(NCC2(c3ccccc3)CCC2)c(=O)n1CC(=O)NCc1ccc2[nH]nc(O)c2c1
5.7 nM |  |  |  |  |  | Cc1cnc(NC[C@H](C)c2ccccc2)c(=O)n1CC(=O)NCc1ccc2[nH]ncc2c1
25.9 nM | 8.6 | 1.67 h | 2230 ng·h/mL | 770 ng/mL |  | Cc1cnc(NCC2(c3ccccn3)CC2)c(=O)n1CC(=O)NCc1ccc2c(N)noc2c1
6.5 nM | 5.8 | 1.15 h | 202 ng·h/mL | 170 ng/mL |  | Cc1ccc(NS(=O)(=O)Cc2ccc(Cl)cc2)c(=O)n1CC(=O)NCc1ccc2[nH]cnc2c1
5 nM | 5.8 | 1.52 h | 458 ng·h/mL | 190 ng/mL |  | COc1ccc(CCNc2ncc(C)n(CC(=O)NCc3ccc4[nH]cnc4c3)c2=O)cc1
8.7 nM |  | 0.6 h | 515 ng·h/mL | 410 ng/mL |  | Cc1ccc(NS(=O)(=O)Cc2ccccc2)c(=O)n1CC(=O)NCc1ccc2[nH]ncc2c1
10.2 nM | 8.6 | 1.95 h | 2150 ng·h/mL | 620 ng/mL |  | Cc1cnc(NCC2(c3ccccc3)CCC2)c(=O)n1CC(=O)NCc1ccc2c(N)noc2c1
3.9 nM |  |  |  |  |  | Cc1ccc(NS(=O)(=O)c2ccc3c(c2)CCO3)c(=O)n1CC(=O)NCc1ccc2[nH]ncc2c1
22.2 nM | 8.6 | 1.82 h | 5470 ng·h/mL | 1520 ng/mL |  | Cc1ccc(NS(=O)(=O)Cc2ccc(Br)cc2)c(=O)n1CC(=O)NCc1ccc2c(N)noc2c1
2.9 nM |  |  |  |  |  | Cc1cnc(NCCc2ccc3c(c2)CCO3)c(=O)n1CC(=O)NCc1ccc2[nH]ncc2c1
0.7 nM |  | 1.78 h |  | 790 ng/mL | 2670 ng·h/mL | Cc1nc(N)ccc1CNC(=O)Cn1c(C)ccc(NS(=O)(=O)Cc2ccccc2)c1=O [L-374087]
23.7 nM |  | 1.4 h | 523 ng·h/mL | 310 ng/mL |  | CCc1cnc(NCCc2ccccc2)c(=O)n1CC(=O)NCc1ccc2[nH]ccc2c1
18.4 nM |  |  |  |  |  | Cc1cnc(NCCc2ccccc2)c(=O)n1CC(=O)NCc1ccc2[nH]ncc2c1
9 nM | 3.6 | 1.48 h | 3270 ng·h/mL | 1370 ng/mL |  | COc1ccc(C2(CNc3ncc(C)n(CC(=O)NCc4ccc5[nH]nc(N)c5c4)c3=O)CC2)cc1
15.4 nM | 3.6 | 2.07 h | 2950 ng·h/mL | 880 ng/mL |  | Cc1cnc(NCC2(c3ccc(F)cc3)CC2)c(=O)n1CC(=O)NCc1ccc2[nH]nc(N)c2c1
9.3 nM | 5.8 | 1.15 h | 1010 ng·h/mL | 480 ng/mL |  | Cc1cnc(NC[C@@H](C)c2ccccc2)c(=O)n1CC(=O)NCc1ccc2[nH]cnc2c1
29.8 nM |  |  |  |  |  | Cc1cnc(NCCc2ccc3c(c2)CCC3)c(=O)n1CC(=O)NCc1ccc2[nH]ccc2c1
15.5 nM | 8.6 | 2.17 h | 3150 ng·h/mL | 850 ng/mL |  | Cc1cnc(NCC2(c3ccc(F)cc3)CC2)c(=O)n1CC(=O)NCc1ccc2c(N)noc2c1
33 nM | 6.3 |  | 18.3 ng·h/mL | 30 ng/mL |  | Cc1cnc(NCCc2ccccc2)c(=O)n1CC(=O)NCc1ccc2[nH]nc(O)c2c1
1 nM |  | 3.32 h |  | 900 ng/mL | 4580 ng·h/mL | Cc1nc(N)ccc1CNC(=O)Cn1c(C)cnc(NCCc2ccccc2)c1=O [L-375378]
4.1 nM | 3.6 | 3.63 h | 5930 ng·h/mL | 960 ng/mL |  | Cc1cnc(NCC(F)(F)c2ccccc2)c(=O)n1CC(=O)NCc1ccc2[nH]nc(N)c2c1
2.5 nM | 8.6 | 3.28 h | 6030 ng·h/mL | 1200 ng/mL |  | Cc1cnc(NCC(F)(F)c2ccccc2)c(=O)n1CC(=O)NCc1ccc2c(N)noc2c1
10.4 nM |  |  |  |  |  | COc1cccc(CCNc2ncc(C)n(CC(=O)NCc3ccc4[nH]ncc4c3)c2=O)c1
28.7 nM | 3.6 | 1.2 h | 298 ng·h/mL | 230 ng/mL |  | Cc1ccc(NS(=O)(=O)c2ccc3c(c2)CCO3)c(=O)n1CC(=O)NCc1ccc2[nH]nc(N)c2c1
31 nM | 8.6 | 4.17 h | 2200 ng·h/mL | 300 ng/mL |  | Cc1cnc(NCC(c2ccccc2)c2ccccc2)c(=O)n1CC(=O)NCc1ccc2c(N)noc2c1
17.6 nM | 8.6 | 4.35 h | 4680 ng·h/mL | 640 ng/mL |  | Cc1cnc(NCCc2ccc(F)cc2)c(=O)n1CC(=O)NCc1ccc2c(N)noc2c1
